In PMC7926352, “Synthesis, Characterization and In Vitro Evaluation of Novel 5-Ene-thiazolo[3,2-b][1,2,4]triazole-6(5H)-ones as Possible Anticancer Agents” (Molecules, 2021):
Like-named read-outs stand apart in the source and are kept apart here.

Tests used:
[1] = test system: ACHN
[2] = test system: Colon cancer cell lines
[3] = test system: Prostate Cancer cell lines
[4] = test system: HL-60 (TB)
[5] = test system: Breast Cancer cell lines
[6] = test system: MOLT-4
[7] = test system: RXF 393
[8] = test system: LOX IMVI
[9] = test system: 786-0
[10] = test system: HCT-116
[11] = test system: PC-3
[12] = test system: SNB-19; assay type: cell-based; conditions: SNB-19, CNS Cancer; for CC50: read-out: LC50 (the source's name)
[13] = test system: NCI/ADR-RES
[14] = test system: UO-31
[15] = test system: U251
[16] = test system: DU-145
[17] = test system: NCI-H226; assay type: cell-based; conditions: NCI-H226, NSCLC
[18] = test system: KM12
[19] = test system: CCRF-CEM
[20] = test system: KM12; remark: listed apart in the source
[21] = test system: HS 578T
[22] = test system: SNB-75
[23] = test system: K-562
[24] = test system: NCI-H522
[25] = test system: NCI-H460
[26] = test system: HCC-2998
[27] = test system: SW-620
[28] = test system: OVCAR-8
[29] = test system: HCT-15
[30] = test system: M14
[31] = test system: SR
[32] = test system: M14; remark: listed apart in the source
[33] = read-out: GI50, values range inside panel, Breast Cancer subpanel
[34] = Homo sapiens, read-out: GI50, panel MG_MID
[35] = Homo sapiens, read-out: GI50, values range inside panel
[36] = Homo sapiens, read-out: LC50, panel MG_MID
[37] = Homo sapiens, read-out: LC50, values range inside panel

Compound: Ethyl(Z)-4-(3-(4-chloro-2-((6-oxothiazolo[3,2-b][1,2,4]triazol-5(6H)-ylidene)methyl)phenyl)propanamido)benzoate [Compound 2i]
- GI50 ([1]; Renal Cancer): 15.5 µM
- TGI ([1]; Renal Cancer): 28.84 µM
- TGI, panel MG_MID ([2]; Colon cancer subpanel): 26.51 µM
- TGI, values range inside panel ([2]; Colon cancer subpanel): 21.37 to 33.11 µM
- GI50 ([2]; read-out: GI50, panel MG_MID, Colon cancer subpanel): 12.4 µM
- GI50 ([2]; read-out: GI50, values range inside panel, Colon cancer subpanel): 9.55 to 16.6 µM
- TGI, panel MG_MID ([3]; Prostate Cancer subpanel): 27.11 µM
- TGI, values range inside panel ([3]; Prostate Cancer subpanel): 16.21 to 38.01 µM
- GI50 ([3]; read-out: GI50, panel MG_MID, Prostate Cancer subpanel): 7.6 µM
- GI50 ([3]; read-out: GI50, values range inside panel, Prostate Cancer subpanel): 3.98 to 11.2 µM
- GI50 ([4]; HL-60 (TB), Leukemia): 12.3 µM
- TGI ([4]; HL-60 (TB), Leukemia): 41.68 µM
- CC50 ([4]; read-out: LC50, HL-60 (TB), Leukemia): > 100 µM
- TGI, panel MG_MID ([5]; Breast Cancer subpanel): 30.29 µM
- GI50 ([5]; read-out: GI50, panel MG_MID, Breast Cancer subpanel): 9.72 µM
- GI50 [5, 33]: 3.54 to 21.9 µM
- GI50 ([6]; MOLT-4, Leukemia): 18.2 µM
- TGI ([6]; MOLT-4, Leukemia): 52.48 µM
- GI50 ([7]; RXF 393, Renal Cancer): 5.75 µM
- TGI ([7]; RXF 393, Renal Cancer): 21.37 µM
- GI50 ([8]; Melanoma): 5.62 µM
- TGI ([8]; Melanoma): 18.19 µM
- GI50 ([9]; 786-0, Renal Cancer): 11.2 µM
- TGI ([9]; 786-0, Renal Cancer): 23.98 µM
- GI50 ([10]; HCT-116, Colon cancer): 9.55 µM
- TGI ([10]; HCT-116, Colon cancer): 23.44 µM
- GI50 ([11]; PC-3, Prostate Cancer): 11.2 µM
- TGI ([11]; PC-3, Prostate Cancer): 38.01 µM
- GI50 [12]: 10.2 µM
- TGI [12]: 23.44 µM
- CC50 [12]: 52.5 µM
- GI50 ([13]; Breast Cancer): 21.9 µM
- TGI ([13]; Breast Cancer): 67.60 µM
- GI50 ([14]; UO-31, Renal Cancer): 15.1 µM
- TGI ([14]; UO-31, Renal Cancer): 29.51 µM
- GI50 ([15]; U251, CNS Cancer): 6.6 µM
- TGI ([15]; U251, CNS Cancer): 19.05 µM
- GI50 ([16]; DU-145, Prostate Cancer): 3.98 µM
- TGI ([16]; DU-145, Prostate Cancer): 16.21 µM
- GI50 [17]: 17 µM
- LC50 (50% lethal concentration) [17]: 67.6 µM
- TGI [17]: 33.11 µM
- GI50 ([18]; KM12, Colon cancer): 10.2 µM
- TGI ([18]; KM12, Colon cancer): 23.98 µM
- GI50 ([19]; Leukemia): 2.88 µM
- TGI ([19]; Leukemia): 9.99 µM
- CC50 [20]: 55 µM
- GI50 ([21]; HS 578T, Breast Cancer): 3.54 µM
- TGI ([21]; HS 578T, Breast Cancer): 19.49 µM
- GI50 ([22]; SNB-75, CNS Cancer): 13.2 µM
- TGI ([22]; SNB-75, CNS Cancer): 44.66 µM
- GI50 ([23]; K-562, Leukemia): 18.2 µM
- TGI ([23]; K-562, Leukemia): > 100 µM
- GI50 ([24]; NCI-H522, NSCLC): 11.7 µM
- TGI ([24]; NCI-H522, NSCLC): 28.84 µM
- GI50 ([25]; NCI-H460, NSCLC): 13.5 µM
- TGI ([25]; NCI-H460, NSCLC): 27.54 µM
- GI50 ([26]; HCC-2998, Colon cancer): 16.6 µM
- TGI ([26]; HCC-2998, Colon cancer): 33.11 µM
- GI50 ([27]; SW-620, Colon cancer): 9.99 µM
- TGI ([27]; SW-620, Colon cancer): 21.37 µM
- GI50 ([28]; OVCAR-8, Ovarian Cancer): 13.5 µM
- TGI ([28]; OVCAR-8, Ovarian Cancer): 33.88 µM
- GI50 ([29]; HCT-15, Colon cancer): 13.8 µM
- TGI ([29]; HCT-15, Colon cancer): 27.54 µM
- GI50 ([30]; M14, Melanoma): 12.6 µM
- TGI ([30]; M14, Melanoma): 27.54 µM
- GI50 ([31]; Leukemia): 11 µM
- TGI ([31]; Leukemia): 79.43 µM
- CC50 [32]: 58.9 µM

Compound: O=C(COc1ccc(Cl)cc1/C=c1\sc2ncnn2c1=O)Nc1ccc(Cl)cc1 [Compound 2h, (Z)-2-(4-Chloro-2-((6-oxothiazolo[3,2-b][1,2,4]triazol-5(6H)-ylidene)methyl)phenoxy)-N-(4-chlorophenyl)acetamide]
- GI50 ([1]; Homo sapiens): 12.6 µM
- CC50 ([1]; Homo sapiens, read-out: LC50): 50.1 µM
- TGI ([1]; Renal Cancer): 25.11 µM
- TGI, panel MG_MID ([2]; Colon cancer subpanel): 17.39 µM
- TGI, values range inside panel ([2]; Colon cancer subpanel): 10.96 to 21.37 µM
- GI50 [2, 34]: 6.13 µM
- GI50 [2, 35]: 2.45 to 9.33 µM
- CC50 [2, 36]: 41.4 µM
- CC50 [2, 37]: 33.1 to 45.7 µM
- GI50 [3, 34]: 2.67 µM
- GI50 [3, 35]: 1.54 to 3.8 µM
- CC50 [3, 36]: 30.8 µM
- CC50 [3, 37]: 15.8 to 45.7 µM
- TGI, panel MG_MID ([3]; Prostate Cancer subpanel): 10.34 µM
- TGI, values range inside panel ([3]; Prostate Cancer subpanel): 4.46 to 16.21 µM
- TGI ([4]; HL-60 (TB), Leukemia): 9.54 µM
- GI50 ([4]; Homo sapiens, HL-60): 2.69 µM
- CC50 ([4]; Homo sapiens, HL-60, read-out: LC50): 37.1 µM
- TGI, panel MG_MID ([5]; Breast Cancer subpanel): 15.61 µM
- TGI, values range inside panel ([5]; Breast Cancer subpanel): 4.07 to 41.68 µM
- GI50 [5, 34]: 4.48 µM
- CC50 [5, 36]: 46.1 µM
- GI50 [5, 33]: 0.01 to 15.5 µM
- GI50 ([6]; Homo sapiens, MOLT-4): 1.9 µM
- CC50 ([6]; Homo sapiens, MOLT-4, read-out: LC50): 22.9 µM
- TGI ([6]; MOLT-4, Leukemia): 5.01 µM
- GI50 ([7]; Homo sapiens, RXF 393): 1.9 µM
- CC50 ([7]; Homo sapiens, RXF 393, read-out: LC50): 36.3 µM
- TGI ([7]; RXF 393, Renal Cancer): 8.51 µM
- GI50 ([8]; Homo sapiens): 2.63 µM
- CC50 ([8]; Homo sapiens, read-out: LC50): 33.1 µM
- TGI ([8]; Melanoma): 11.22 µM
- TGI ([9]; 786-0, Renal Cancer): 15.84 µM
- GI50 ([9]; Homo sapiens, 786-0): 4.16 µM
- CC50 ([9]; Homo sapiens, 786-0, read-out: LC50): 39.8 µM
- TGI ([10]; HCT-116, Colon cancer): 20.89 µM
- GI50 ([10]; Homo sapiens, HCT-116): 7.58 µM
- CC50 ([10]; Homo sapiens, HCT-116, read-out: LC50): 45.7 µM
- GI50 ([11]; Homo sapiens, PC-3): 3.8 µM
- CC50 ([11]; Homo sapiens, PC-3, read-out: LC50): 45.7 µM
- TGI ([11]; PC-3, Prostate Cancer): 16.21 µM
- GI50 ([12]; Homo sapiens): 3.8 µM
- CC50 ([12]; Homo sapiens): 38 µM
- TGI [12]: 14.45 µM
- TGI ([13]; Breast Cancer): 41.68 µM
- GI50 ([13]; Homo sapiens): 15.5 µM
- CC50 ([13]; Homo sapiens, read-out: LC50): > 100 µM
- GI50 ([14]; Homo sapiens, UO-31): 2.29 µM
- CC50 ([14]; Homo sapiens, UO-31, read-out: LC50): 44.7 µM
- TGI ([14]; UO-31, Renal Cancer): 17.37 µM
- GI50 ([15]; Homo sapiens, U-251): 4.07 µM
- CC50 ([15]; Homo sapiens, U-251, read-out: LC50): 38 µM
- TGI ([15]; U251, CNS Cancer): 14.45 µM
- TGI ([16]; DU-145, Prostate Cancer): 4.46 µM
- GI50 ([16]; Homo sapiens, DU-145): 1.54 µM
- CC50 ([16]; Homo sapiens, DU-145, read-out: LC50): 15.8 µM
- GI50 ([17]; Homo sapiens): 3.09 µM
- LC50 (50% lethal concentration) ([17]; Homo sapiens): 44.7 µM
- TGI [17]: 17.37 µM
- GI50 ([18]; Homo sapiens, KM12): 2.45 µM
- CC50 ([18]; Homo sapiens, KM12, read-out: LC50): 33.1 µM
- TGI ([18]; KM12, Colon cancer): 10.96 µM
- GI50 ([19]; Homo sapiens): 1.35 µM
- CC50 ([19]; Homo sapiens, read-out: LC50): 7.58 µM
- TGI ([19]; Leukemia): 3.16 µM
- TGI ([21]; HS 578T, Breast Cancer): 5.24 µM
- GI50 ([21]; Homo sapiens, Hs-578T): 2.04 µM
- CC50 ([21]; Homo sapiens, Hs-578T, read-out: LC50): 33.9 µM
- GI50 ([22]; Homo sapiens, SNB-75): 3.38 µM
- CC50 ([22]; Homo sapiens, SNB-75, read-out: LC50): 87.1 µM
- TGI ([22]; SNB-75, CNS Cancer): 15.48 µM
- GI50 ([23]; Homo sapiens, K562): 2.51 µM
- CC50 ([23]; Homo sapiens, K562, read-out: LC50): 49 µM
- TGI ([23]; K-562, Leukemia): 14.45 µM
- GI50 ([24]; Homo sapiens, NCI-H522): 3.16 µM
- CC50 ([24]; Homo sapiens, NCI-H522, read-out: LC50): 38 µM
- TGI ([24]; NCI-H522, NSCLC): 9.99 µM
- GI50 ([25]; Homo sapiens, NCI-H460): 11.5 µM
- CC50 ([25]; Homo sapiens, NCI-H460, read-out: LC50): 49 µM
- TGI ([25]; NCI-H460, NSCLC): 23.44 µM
- TGI ([26]; HCC-2998, Colon cancer): 18.62 µM
- GI50 ([26]; Homo sapiens, HCC 2998): 7.07 µM
- CC50 ([26]; Homo sapiens, HCC 2998, read-out: LC50): 43.6 µM
- GI50 ([27]; Homo sapiens, SW-620): 4.26 µM
- CC50 ([27]; Homo sapiens, SW-620, read-out: LC50): 38 µM
- TGI ([27]; SW-620, Colon cancer): 14.79 µM
- GI50 ([28]; Homo sapiens, OVCAR-8): 3.16 µM
- CC50 ([28]; Homo sapiens, OVCAR-8, read-out: LC50): 41.7 µM
- TGI ([28]; OVCAR-8, Ovarian Cancer): 12.88 µM
- TGI ([29]; HCT-15, Colon cancer): 21.37 µM
- GI50 ([29]; Homo sapiens, HCT-15): 9.33 µM
- CC50 ([29]; Homo sapiens, HCT-15, read-out: LC50): 45.7 µM
- GI50 ([30]; Homo sapiens, M14): 8.31 µM
- CC50 ([30]; Homo sapiens, M14, read-out: LC50): 45.7 µM
- TGI ([30]; M14, Melanoma): 20.89 µM
- GI50 ([31]; Homo sapiens): 1.38 µM
- CC50 ([31]; Homo sapiens, read-out: LC50): 17.4 µM
- TGI ([31]; Leukemia): 4.07 µM
